According to PubChem BioAssay AID1159559 (GlaxoSmithKline (GSK), 2015):
Calls of active or inactive are those of the source.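 The calls were made as follows: active = compounds whose IC50 against parasite growth in infected mouse cells is below 50000 nM; inactive = the rest.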

Tested on: T. cruzi Tulahuen in NIH-3T3, beta-gal fluorescence, 4 d
Test: T. cruzi intracellular growth inhibition, cell-based (AID 1159559)

Structure (SMILES)	IC50
CCCN1CCN(Cc2ccc(S(=O)(=O)Nc3cccc(C)c3)cc2)CC1	790 nM
Nc1nonc1-c1nc2cncc(C(=O)N3CC[C@H](N)C3)c2n1CC1CC1	> 50000 nM (inactive)
c1ccc(CNc2cccc3ccncc23)cc1	6300 nM
O=C(COc1ncnc2cc([N+](=O)[O-])ccc12)NC(=O)NC1CCCCC1	1300 nM
Cn1c(CC(=O)NNC(=O)c2ccc3ccccc3n2)nc2ccccc21	3200 nM
CC(=O)Nc1ccc(CN2CCC(N3CC(c4ccccc4)(c4ccccc4)OCC3=O)CC2)cc1	13000 nM
COc1ccc2nc(N(Cc3cccnc3)C(=O)C3CCC3)sc2c1	130 nM
COc1cnc2ccc(=O)n(CCN3CCC(NC(=O)Cc4ccc(Cl)c(Cl)c4)CC3)c2c1	320 nM
COc1ccc(-c2nc3ccncc3c(=O)n2CCOc2ccccc2)cc1	630 nM
Cc1[nH]n2c(=O)c3c(nc2c1-c1ccc(F)cc1)CCCC3	1600 nM
Cc1cc(NC(=O)C2CC2)ccc1OC1CCN(Cc2ccco2)CC1	16000 nM
O=c1cc(CSc2ccc(Cl)cc2)nc(-c2ccccn2)[nH]1	1000 nM
CCN(Cc1cccs1)C(=O)CSc1nnc(-c2ccc3c(c2)OCO3)o1	4000 nM
CN(C)S(=O)(=O)c1ccc(-c2cnc(N)c(-c3nc4ccc(F)cc4[nH]3)c2)cc1	1300 nM
CC(C)(C)CC(=O)NCCc1csc(-c2ccc(F)cc2)n1	1300 nM
COc1ccc(-c2cnc(C)o2)cc1S(=O)(=O)Nc1ccc(C)cc1C	2500 nM
O=C(NC1C(=O)N(c2ccccc2)C1c1cccnc1)c1ccc(Cl)s1 (centres undefined)	32 nM
Cc1c(C(C)NC(=O)Nc2cccc(Cl)c2)sc2ncnn12 (centres undefined)	130 nM
CN(C)CCN(C)Cc1ccc(Cl)cc1NS(=O)(=O)c1ccc(Cl)c(Cl)c1	1000 nM
COc1cc(Nc2nccc(Nc3onc(C)c3C)n2)cc(S(=O)(=O)C2CCOCC2)c1	6300 nM
O=C(NCCc1cccnc1)c1ccc(-c2ccccc2F)o1	100 nM
O=[N+]([O-])c1ccc(-c2nnn(-c3ccc(Cl)cc3)n2)o1	250 nM

Structure (SMILES)	IC50
O=c1cc(NCCCNCc2cc(C(F)(F)F)cs2)[nH]c2ccccc12	7900 nM
CNc1cncc(C2CCCN2C(=O)Cc2ccc3ccccc3c2)n1 (centres undefined)	79 nM
O=C(NCc1ccc(Cl)cc1)C1CN(C(=O)c2ccc(F)cc2)CCS1 (centres undefined)	25000 nM
O=C(Nc1ncc([N+](=O)[O-])s1)C1CC1	400 nM
NC(=O)c1ccsc1NC(=O)c1ccc([N+](=O)[O-])s1	79 nM
O=C(CN(Cc1ccccn1)Cc1ccccn1)NCc1csc(-c2cccs2)n1	4000 nM
O=C(CN1CCN(S(=O)(=O)c2cccc([N+](=O)[O-])c2)CC1)Nc1ccc(Oc2ccccc2)cc1	2500 nM
Cc1[nH]nc(Nc2ccnc3[nH]ccc23)c1C	4000 nM
O=C(c1ccc(OCCCc2cnc[nH]2)cc1)C1CC1	320 nM
Cc1cc(N(C)C)nc2ccc(Cc3cnc(N)nc3N)cc12	1300 nM
COc1ccc(-c2nc3ncccc3o2)cc1NC(=O)c1cccs1	2000 nM
CNS(=O)(=O)c1ccccc1Nc1nc(Nc2ccnn2C)ncc1Cl	400 nM
Cc1ccc2sc(NC(=O)Cn3cnc([N+](=O)[O-])n3)nc2c1	1300 nM
COc1cccc(Nc2cc(C)nc(-c3ccccn3)n2)c1	3200 nM
COc1ccc(-c2csc(NC(=O)c3ccc([N+](=O)[O-])s3)n2)cc1	160 nM
COc1ccc(C(=O)N2CCC(Nc3cccnc3)C2)c(OC)n1 (centres undefined)	320 nM
CNC(=O)Oc1ccc(C(=O)NCc2ccccc2)cc1OC(=O)NC	32000 nM
Cc1cc(NC(=O)C2CCCCC2)n(-c2nc3c(c(=O)[nH]2)CCC3)n1	320 nM
Cc1cc2ncn(-c3ccc([N+](=O)[O-])cc3C#N)c2cc1C	1300 nM
Cc1cc2cncn2c(C2CCCCN2C(=O)c2cccs2)n1 (centres undefined)	25 nM
O=S(=O)(NCC(c1cccnc1)N1CCN(c2ccc(F)cc2)CC1)c1cccs1 (centres undefined)	160 nM
COc1ccc(C2CC(c3ccc(NS(C)(=O)=O)cc3)=NN2C(=O)c2cccs2)cc1OC (centres undefined)	25000 nM

Structure (SMILES)	IC50
CCN(CC)c1ccc(S(=O)(=O)N(CC)CC)c2nonc12	25000 nM
CC(C)Oc1cccc(N2CCC(C(=O)N3CCCN(C(C)C)CC3)CC2)c1	1300 nM
Cc1cc(Br)sc1CNCCCNc1cc(=O)c2ccccc2[nH]1	1600 nM
Cc1ccc2c(c1)-c1onc(C(=O)N3CCCCC3c3cccnc3)c1CO2 (centres undefined)	100 nM
O=C(Nc1ccc(C(=O)N2CCCC2c2ccc3c(c2)OCCCO3)cc1)c1ccco1 (centres undefined)	500 nM
CN(C)CCOc1ccc(N2CCN(S(=O)(=O)c3ccc(Cl)cc3)CC2)cc1	630 nM
COc1ccc(S(=O)(=O)Nc2ccccc2OC)cc1NC(=O)CCCc1c[nH]c2ccccc12	1600 nM
COc1ccc2ncc(Cl)c(CCN3CC[C@@H](NCc4cc5c(cn4)OCS5)[C@H](O)C3)c2n1	130 nM
CNc1nc(C)nc(N2CCc3cc(C(=O)NCc4ccc(-c5ccn[nH]5)cc4Cl)ccc32)n1	> 50000 nM (inactive)
O=C(NCCc1ccccn1)C(c1cn[nH]c1)N1CCN(c2ccc(Cl)c(Cl)c2)CC1 (centres undefined)	100 nM
COc1ccc(-c2ccc3nnc(-c4ccc(O)c(OC)c4)n3c2)cn1	1300 nM
O=C(NCCc1cccnc1)c1csc(-c2ccccc2)n1	250 nM
CCC(=O)Nc1ccccc1C(=O)Nc1ccccn1	> 50000 nM (inactive)
COc1ccc2nccc([C@H](O)CN3CC[C@H](NC(=O)c4ccc(Br)cc4)[C@@H](O)C3)c2n1	250 nM
COc1ccc(NS(=O)(=O)c2cccc(NC(=O)c3cc(F)cc(F)c3)c2)cc1	790 nM
CCC(=O)Nc1ccc(C(=O)Nc2ccccc2-c2ccccc2)cc1	500 nM
Cc1cccnc1NC(=O)c1cccc(OCc2c(C)noc2C)c1	> 50000 nM (inactive)
CCc1ccccc1[C@@H](C)NC(=O)c1cnc2c(cnn2CC)c1NC1CCN(C(N)=O)CC1	25000 nM
Nc1nc(-c2ccccn2)nc(-n2nc(-c3ccccc3)cc2N)n1	500 nM
Cc1c(CNC(=O)c2ccc(Cn3cc(Cl)c([N+](=O)[O-])n3)cc2)cnn1C	1000 nM
COc1ccc(OC)c(S(=O)(=O)N(Cc2c(F)cccc2F)[C@@H]2CCN(C#N)C2)c1	6300 nM
CC(c1ccc2c(c1)CCCC2)N(C)c1ncc2c(N)nc(N)nc2n1 (centres undefined)	32 nM

Structure (SMILES)	IC50
O=C(NC(c1ccc(Cl)cc1)c1cnccn1)C1CCN(C(=O)Nc2cccc(C(F)(F)F)c2)CC1 (centres undefined)	630 nM
O=C(NCc1nnc2n1CCCCC2)c1csc(-c2ccccc2)n1	2500 nM
CNC(=O)C1Cc2ccccc2N1C(=O)Cc1ccc(OC)cc1 (centres undefined)	> 50000 nM (inactive)
Cc1ccc(NC(C)C(=O)Nc2ccc(C#N)cc2)cc1S(=O)(=O)N1CCCCC1 (centres undefined)	10000 nM
Cc1nc(N2CCC(C(=O)N3CCC(O)(c4cccnc4)CC3)CC2)nc2ccc(C(C)C)cc12	1600 nM
O=C(Nc1nc(-c2ccc(F)cc2)cs1)c1ccc([N+](=O)[O-])s1	200 nM
CC(=O)Nc1ccc(-c2cnc(N)c(-c3nc4ccc(F)cc4[nH]3)c2)cc1	630 nM
Cc1nn(-c2nc(N)nc(-c3ccccn3)n2)c(N)c1-c1ccccc1	4000 nM
Cc1[nH]nc2c1C(c1ccc(OCc3ccccc3F)cc1)SCC(=O)N2 (centres undefined)	2000 nM
Oc1c(-c2n[nH]c(CCc3ccccc3)n2)ncc2cccnc12	200 nM
Cc1cc2cc(CNc3ccc4c(c3)OCO4)c(=O)n(CCO)c2cc1C	630 nM
O=C(CN1CCN(c2ccccn2)CC1)Nc1cc(S(=O)(=O)N2CCCCCC2)ccc1Cl	10000 nM
Oc1c(-c2n[nH]c(Cc3ccc(F)cc3)n2)ncc2cccnc12	160 nM
O=C(Nc1nccs1)c1ccccc1Cn1cc([N+](=O)[O-])cn1	> 50000 nM (inactive)
O=C(Nc1ccccc1)Nc1nc(-c2ccccn2)cs1	630 nM
Cn1nc([N+](=O)[O-])nc1N1CCCCC1	1300 nM
CCN(Cc1ccncc1)Cc1ccc(NC(=O)c2cc(-c3ccc(F)cc3)n[nH]2)cc1	400 nM
O=C(NCCc1nc(-c2ccc(F)c(F)c2)n[nH]1)C1CCCCC1	2000 nM
Cc1nnnn1-c1cccc(C(=O)N2CCC[C@@]3(C)c4ncncc4CCC23)c1 (some centres undefined)	630 nM
CCCCc1cc(Nc2cc(C3CCC3)[nH]n2)nc(N2CCC2C(N)=O)n1 (centres undefined)	3200 nM
Cc1[nH]n2c(=O)c3c(nc2c1-c1ccc(Cl)cc1)CCCC3	400 nM
Cc1ccc(NC(=O)c2ccc([N+](=O)[O-])s2)cc1S(=O)(=O)N1CCOCC1	200 nM

Structure (SMILES)	IC50
O=c1ccn(-c2ccc([N+](=O)[O-])cc2Cl)c2ccc(F)cc12	1600 nM
CS(=O)(=O)c1ccccc1C(=O)N(Cc1ccccc1)c1ccccc1	50000 nM
CCN(CC)S(=O)(=O)c1ccc(Cn2nc(C(=O)Nc3ccncn3)c3ccccc32)cc1	320 nM
O=C(Nc1ccc(C(F)(F)F)cc1)Nc1cccc([N+](=O)[O-])c1	1000 nM
COc1ccc([N+](=O)[O-])cc1NC(=O)Nc1cccc(Cl)c1	790 nM
COc1ccc(Nc2nccc(N(C)c3n[nH]c4c(F)cccc34)n2)cc1S(C)(=O)=O	2000 nM
COc1ccc(C(=O)NC2CCN(CCn3c(=O)ccc4ncc(F)cc43)CC2)cc1Cl	500 nM
O=C(NCc1ccncc1)c1ccccc1N1CCCN(C(=O)Cc2ccc(F)c(F)c2)CC1	130 nM
CCOc1ccc2nc(NC(=O)c3ccc([N+](=O)[O-])s3)sc2c1	1600 nM
Cc1ccc2onc(Nc3ccnc(Nc4cccc(S(C)(=O)=O)c4)n3)c2c1	4000 nM
COc1cccc(NS(=O)(=O)c2ccc3[nH]cc(C(=O)NCCC(C)C)c(=O)c3c2)c1	> 50000 nM (inactive)
COc1ccc(S(=O)(=O)NC(C)C)cc1Nc1ncc(-c2cccc(F)c2)cn1	630 nM
NC(=O)c1ccc(-c2cccc(OCCN3CCN(C4CCCCC4)CC3)c2)cc1	1600 nM
Cc1ccc(S(=O)(=O)Cn2nnnc2C(c2cccnc2)N2CCN(c3ccccc3)CC2)cc1 (centres undefined)	500 nM
COc1ccc(-c2cc(C)no2)cc1S(=O)(=O)Nc1ccc(F)c(Cl)c1	1600 nM
COc1cccc(CN(C)Cc2nc(N)c3c(C)c(C)sc3n2)c1	6300 nM
CC1(Oc2cncc(Cl)c2)CCN(Cc2cc3ccccc3[nH]2)C1 (centres undefined)	1000 nM
O=C(NCCc1csc(-c2ccc(F)cc2)n1)c1cccs1	400 nM
CCC(c1ccc(F)cc1)n1cncc1-c1cnn(C)c1 (centres undefined)	200 nM
CC(C)CC(=O)Nc1cc(C2CC2)nn1-c1nc2c(c(=O)[nH]1)CCCC2	790 nM
O=C(NCc1nnc2n1CCCCC2)c1ccc(-c2ccc(F)cc2)o1	1300 nM
